# Reference: the NIST ThermoML archive (doi:10.1021/je034066w)
# Numbers after ± are expanded uncertainties.
# Conditions: Liquid
compound,measurement,setting,value
CC(C)O [propan-2-ol],Critical pressure,Direct measurement,4755 ± 48 kPa
same,Critical temperature,Visual observation in a stirred cell,508.15 ± 0.12 K
